Holding throughout (type): cell-based
For one test, the target named is T1, PTGER4 (EP4) (Homo sapiens, UniProt P35408).
T1 construct: host or cells: HEK 293 (PathHunter, stably transfected)
The test is described as follows: hEP4 b-Arrestin Assay (PathHunter HEK 293 PTGER4 b-arrestin cells, PGE2 20 nM). To be noted: antagonistic activity, beta-arrestin assay, HEK 293 PTGER4 cells, PGE2 20 nM (EC80); read-out: hEP4 b-arr IC50. In short, it runs like this:
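PathHunter HEK 293 EP4 b-arrestin enzyme-complementation cells preincubated 15 min at 37° C with compound (10 μM-2 nM or 1 μM-0.2 nM), then stimulated 120 min with 20 nM PGE2 (EC80). Chemiluminescence read; IC50 from duplicate % activity vs DMSO, one-site fit, averaged over repeats.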

Another test addresses T2, EP2 (Homo sapiens, UniProt P43116).
T2 construct: SF295 glioblastoma cells express high endogenous EP2 and no EP4; host or cells: SF295 glioblastoma cells
The test is described as follows: hEP2 cAMP Assay (SF295 glioblastoma cells, HTRF cAMP, PGE2 75 nM). To be noted: antagonistic activity, PGE2 75 nM (EC80). In short, it runs like this:
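IC50 values derive from duplicate-point curves of percent cAMP relative to DMSO, read by HTRF (665/620 nm) against a cAMP calibrator. Compounds (30 μM to 0.01 nM ranges) were given 45 min at room temperature before 30 min with 75 nM PGE2, in EP2-only SF295 cells with 2 mM IBMX.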

The target of another test is T3, PTGER2 (EP2) (Homo sapiens, UniProt P43116).
T3 construct: host or cells: HEK 293 (PathHunter, stably transfected)
Nature of the test: hEP2 b-Arrestin Assay (PathHunter HEK 293 PTGER2 b-arrestin cells, PGE2 5 μM). To be noted: antagonistic activity, beta-arrestin assay, HEK 293 PTGER2 cells, PGE2 5 μM (EC80); read-out: hEP2 b-arr IC50. In short, it runs like this: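 PathHunter enzyme-fragment complementation in HEK 293 cells: compounds (10 μM-2 nM or 1 μM-0.2 nM) pre-incubated 15 min at 37 °C, then 5 μM PGE2 (EC80) for 120 min at 37 °C. Chemiluminescence read after 1 h detection; IC50 from duplicate dose-response fits, means of repeats.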

In another test the target is T4, EP4 (Homo sapiens, UniProt P35408).
T4 construct: BT549 breast cancer cells, express high endogenous EP4 levels and very low EP2 levels; host or cells: BT549 breast cancer cells
Nature of the test: hEP4 cAMP Assay (BT549 breast cancer cells, HTRF cAMP, PGE2 6 nM). To be noted: antagonistic activity, PGE2 6 nM (EC80). In short, it runs like this: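 BT549 cells (endogenous EP4, very low EP2) in HBSS/20 mM HEPES/0.2% BSA/2 mM IBMX, pre-incubated 45 min RT with compound, then stimulated 30 min RT with PGE2 6 nM (EC80). cAMP read by HTRF competitive immunoassay (665/620 nm), converted via calibrator to % of DMSO control; IC50 from duplicate dose-response curves.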

T2 sequence (P43116 whole entry): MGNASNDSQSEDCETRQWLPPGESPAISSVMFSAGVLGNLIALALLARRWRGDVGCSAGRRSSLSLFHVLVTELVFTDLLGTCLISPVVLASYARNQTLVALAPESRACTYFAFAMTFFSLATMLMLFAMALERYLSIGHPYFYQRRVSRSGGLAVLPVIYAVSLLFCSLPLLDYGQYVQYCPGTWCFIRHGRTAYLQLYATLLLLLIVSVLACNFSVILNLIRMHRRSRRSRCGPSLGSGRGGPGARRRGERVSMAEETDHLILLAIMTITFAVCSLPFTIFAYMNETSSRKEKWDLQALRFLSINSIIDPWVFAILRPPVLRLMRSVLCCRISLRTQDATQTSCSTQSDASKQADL
T3 sequence (P43116 whole entry): as above
T1 sequence (P35408 whole entry): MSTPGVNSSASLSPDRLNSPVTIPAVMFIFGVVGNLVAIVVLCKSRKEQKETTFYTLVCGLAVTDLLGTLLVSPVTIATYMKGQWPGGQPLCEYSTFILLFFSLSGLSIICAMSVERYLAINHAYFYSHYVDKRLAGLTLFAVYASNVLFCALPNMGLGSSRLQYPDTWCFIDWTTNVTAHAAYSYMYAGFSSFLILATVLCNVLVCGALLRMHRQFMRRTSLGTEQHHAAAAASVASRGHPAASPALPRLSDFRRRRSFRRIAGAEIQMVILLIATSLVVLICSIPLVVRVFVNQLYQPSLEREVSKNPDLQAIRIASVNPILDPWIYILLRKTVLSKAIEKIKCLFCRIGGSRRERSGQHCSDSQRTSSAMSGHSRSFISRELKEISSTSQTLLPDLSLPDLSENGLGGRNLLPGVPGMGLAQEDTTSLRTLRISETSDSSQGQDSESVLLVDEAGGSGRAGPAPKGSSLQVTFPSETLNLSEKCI
T4 sequence (P35408 whole entry): as above

On to `CCOc1cc(-c2cc(NCCc3cc(OC)cc4ccccc34)ncn2)sc1C(=O)O` [Example 42, 3-Ethoxy-5-{6-[2-(3-methoxy-naphthalen-1-yl)-ethylamino]-pyrimidin-4-yl}-thiophene-2-carboxylic acid], for which the 50% inhibitory concentration (IC50) was determined as 15 nM on PTGER4 (EP4), 31 nM at EP2, 32 nM at PTGER2 (EP2) and 35 nM at EP4.

Take `CCOc1cc(-c2cc(NCCc3c(OC)ccc4c3OCO4)ncn2)sc1C(=O)O` [Example 44, 3-Ethoxy-5-{6-[2-(5-methoxy-benzo[1,3]dioxol-4-yl)-ethylamino]-pyrimidin-4-yl}-thiophene-2-carboxylic acid]: the IC50 is 51 nM at PTGER4 (EP4), 37 nM on EP2, 36 nM on PTGER2 (EP2) and 42 nM against EP4.

On to `CCOc1cc(-c2cc(NCCc3c(OCC)ccc4c3OCO4)ncn2)sc1C(=O)O` [Example 45, 3-Ethoxy-5-{6-[2-(5-ethoxy-benzo[1,3]dioxol-4-yl)-ethylamino]-pyrimidin-4-yl}-thiophene-2-carboxylic acid], for which the IC50 on PTGER4 (EP4) came to 53 nM; against EP2 it was 10 nM; on PTGER2 (EP2) it was 10 nM; at EP4 it was 44 nM.

Take `CCOc1cc(-c2cc(NCCc3cccc4cc[nH]c34)ncn2)sc1C(=O)O` [Example 46, 3-Ethoxy-5-{6-[2-(1H-indol-7-yl)-ethylamino]-pyrimidin-4-yl}-thiophene-2-carboxylic acid]: the concentration for half-maximal inhibition (IC50) was 311 nM at PTGER4 (EP4), 85 nM against EP2, 110 nM at PTGER2 (EP2) and 244 nM at EP4.

On to `CCOc1cc(-c2cc(NCCc3ccc(OC)c4ccccc34)ncn2)sc1C(=O)O` [Example 59, 3-Ethoxy-5-{6-[2-(4-methoxy-naphthalen-1-yl)-ethylamino]-pyrimidin-4-yl}-thiophene-2-carboxylic acid], for which the concentration for half-maximal inhibition (IC50) at PTGER4 (EP4) turned out to be 17 nM; against EP2, 141 nM; on PTGER2 (EP2), 156 nM; against EP4, 38 nM.

For the compound `CCOc1cc(-c2cc(NCCc3ccc(Cl)c4ccccc34)ncn2)sc1C(=O)O` [Example 62, 5-{6-[2-(4-Chloro-naphthalen-1-yl)-ethylamino]-pyrimidin-4-yl}-3-ethoxy-thiophene-2-carboxylic acid], the IC50 at PTGER4 (EP4) is 19 nM; at EP2 it was 24 nM; at PTGER2 (EP2) it was 32 nM; on EP4 it was 29 nM.

In the case of `CCOc1cc(-c2cc(NCCc3c(OC)ccc4ncccc34)ncn2)sc1C(=O)O` [Example 65, 3-Ethoxy-5-{6-[2-(6-methoxy-quinolin-5-yl)-ethylamino]-pyrimidin-4-yl}-thiophene-2-carboxylic acid], the IC50 was determined as 78 nM at PTGER4 (EP4), 15 nM against EP2, 18 nM at PTGER2 (EP2) and 75 nM against EP4.

`CCOc1cc(-c2cc(NCCc3c(C#N)ccc4ccccc34)ncn2)ccc1C(=O)O` [Example 67, 4-{6-[2-(2-Cyano-naphthalen-1-yl)-ethylamino]-pyrimidin-4-yl}-2-ethoxy-benzoic acid]: the concentration for half-maximal inhibition (IC50) turned out to be 499 nM at PTGER4 (EP4), 25 nM against EP2, 29 nM on PTGER2 (EP2) and 309 nM against EP4.

Regarding `CCOc1cc(-c2cc(NCCc3c(C#N)ccc4ccccc34)ncn2)sc1C(=O)O` [Example 68, 5-{6-[2-(2-Cyano-naphthalen-1-yl)-ethylamino]-pyrimidin-4-yl}-3-ethoxy-thiophene-2-carboxylic acid], the IC50 stood at 24 nM at PTGER4 (EP4), 3 nM against EP2, 7 nM on PTGER2 (EP2) and 22 nM against EP4.

`CCOc1cc(-c2cc(NCCc3ccc(C#N)c4ccccc34)ncn2)sc1C(=O)O` [Example 69, 5-{6-[2-(4-Cyano-naphthalen-1-yl)-ethylamino]-pyrimidin-4-yl}-3-ethoxy-thiophene-2-carboxylic acid]: the IC50 at PTGER4 (EP4) turned out to be 48 nM; at EP2, 79 nM; on PTGER2 (EP2) it was 78 nM; against EP4 it was 66 nM.

As for `CCOc1cc(-c2cc(NCCc3ccc(C(F)F)c4ccccc34)ncn2)sc1C(=O)O` [Example 72, 5-{6-[2-(4-Difluoromethyl-naphthalen-1-yl)-ethylamino]-pyrimidin-4-yl}-3-ethoxy-thiophene-2-carboxylic acid], the IC50 at PTGER4 (EP4) stood at 8 nM; against EP2, 50 nM; on PTGER2 (EP2) it was 50 nM; against EP4 it was 6 nM.

Turning to `CCOc1cc(-c2cc(NCCc3cccc4cc(C)oc34)ncn2)sc1C(=O)O` [Example 74, 3-Ethoxy-5-{6-[2-(2-methyl-benzofuran-7-yl)-ethylamino]-pyrimidin-4-yl}-thiophene-2-carboxylic acid], the concentration for half-maximal inhibition (IC50) on PTGER4 (EP4) worked out at 117 nM; against EP2, 78 nM; at PTGER2 (EP2), 212 nM; at EP4, 88 nM.

As to `CCOc1cc(-c2cc(NCCc3c(N)ccc4ccccc34)ncn2)sc1C(=O)O` [Example 78, 5-{6-[2-(2-Amino-naphthalen-1-yl)-ethylamino]-pyrimidin-4-yl}-3-ethoxy-thiophene-2-carboxylic acid], the IC50 on PTGER4 (EP4) was found to be 50 nM; against EP2, 56 nM; at PTGER2 (EP2) it was 41 nM; on EP4, 51 nM.

As to `CCOc1cc(-c2cc(NCCc3c(C)ccc4c3cnn4C)ncn2)sc1C(=O)O` [Example 79, 5-{6-[2-(1,5-Dimethyl-1H-indazol-4-yl)-ethylamino]-pyrimidin-4-yl}-3-ethoxy-thiophene-2-carboxylic acid], the IC50 on PTGER4 (EP4) stood at 196 nM; on EP2 it was 25 nM; at PTGER2 (EP2) it was 36 nM; on EP4 it was 92 nM.

For `COc1ccc2ncccc2c1CCNc1cc(-c2cc(C(F)(F)F)c(C(=O)O)s2)ncn1` [Example 81, 5-{6-[2-(6-Methoxy-quinolin-5-yl)-ethylamino]-pyrimidin-4-yl}-3-trifluoromethyl-thiophene-2-carboxylic acid], the IC50 on PTGER4 (EP4) amounted to 427 nM; at EP2 it was 30 nM; at PTGER2 (EP2) it was 116 nM; against EP4, 205 nM.

On to `CCOc1cc(-c2cc(NCCc3c(C)ccc4cnccc34)ncn2)sc1C(=O)O` [Example 85, 3-Ethoxy-5-{6-[2-(6-methyl-isoquinolin-5-yl)-ethylamino]-pyrimidin-4-yl}-thiophene-2-carboxylic acid], for which the IC50 was 244 nM at PTGER4 (EP4), 32 nM at EP2, 30 nM at PTGER2 (EP2) and 130 nM against EP4.

For the compound `CCOc1cc(-c2cc(NCCc3c(F)ccc4ccccc34)ncn2)sc1C(=O)O` [Example 95, 3-Ethoxy-5-{6-[2-(2-fluoro-naphthalen-1-yl)-ethylamino]-pyrimidin-4-yl}-thiophene-2-carboxylic acid], the IC50 at PTGER4 (EP4) was determined as 51 nM; against EP2, 4 nM; on PTGER2 (EP2) it was 8 nM; at EP4, 21 nM.

Turning to `CCSc1cc(-c2cc(NCCc3ccc(C)c4ccccc34)ncn2)ccc1C(=O)O` [Example 100, 2-Ethylsulfanyl-4-{6-[2-(4-methyl-naphthalen-1-yl)-ethylamino]-pyrimidin-4-yl}-benzoic acid], the 50% inhibitory concentration (IC50) came out at 206 nM on PTGER4 (EP4), 206 nM on EP2, 133 nM at PTGER2 (EP2) and 76 nM at EP4.

For the compound `CCOc1cc(-c2cc(NCCc3cccc4ccsc34)ncn2)sc1C(=O)O` [Example 103, 5-[6-(2-Benzo[b]thiophen-7-yl-ethylamino)-pyrimidin-4-yl]-3-ethoxy-thiophene-2-carboxylic acid], the IC50 on PTGER4 (EP4) was 314 nM; against EP2 it was 79 nM; on PTGER2 (EP2), 33 nM; at EP4 it was 73 nM.

Turning to `CCOc1cc(-c2cc(NCCc3cccc4sccc34)ncn2)sc1C(=O)O` [Example 108, 5-[6-(2-Benzo[b]thiophen-4-yl-ethylamino)-pyrimidin-4-yl]-3-ethoxy-thiophene-2-carboxylic acid], the half-inhibitory concentration (IC50) was found to be 225 nM on PTGER4 (EP4), 52 nM against EP2, 31 nM on PTGER2 (EP2) and 31 nM at EP4.

Regarding `COc1ccc2ccccc2c1CCNc1cc(-c2ccc(-c3c(O)c(=O)c3=O)cc2)ncn1` [Example 116, 3-Hydroxy-4-(4-{6-[2-(2-methoxy-naphthalen-1-yl)-ethylamino]-pyrimidin-4-yl}-phenyl)-cyclobut-3-ene-1,2-dione], the IC50 at PTGER4 (EP4) amounted to 1140 nM; against EP2 it was 67 nM; on PTGER2 (EP2) it was 25 nM; against EP4 it was 241 nM.

The IC50 is the concentration that inhibits the measured activity by half.

Source of the values: patent US11446298B2, “Pyrimidine derivatives” (Idorsia Pharmaceuticals Ltd, priority 2017, dated 2022).
